Experimental data as given in patent US10189887B2, “Polypeptides and uses thereof for reducing CD95-mediated cell motility” (INSERM (INSTITUT NATIONAL DE LA SANTÉ ET DE LA RECHERCHE …, priority 2014, dated 2019).
Ends that are not written are not given here.

Key:
CD95/PLCγ1 = biological target: T1, CD95/PLCγ1 (Homo sapiens, UniProt P19174); assay: PLCγ1 recruitment to CD95 (immunoprecipitation and immunoblotting); type: cell-based; settings: HEK cells co-transfected with PLCγ1 and construct
T1 construct: endogenous in cells; host or cells: CEM (human leukemic T-cell line)
T1 sequence (P19174 2-1290 limits assumed): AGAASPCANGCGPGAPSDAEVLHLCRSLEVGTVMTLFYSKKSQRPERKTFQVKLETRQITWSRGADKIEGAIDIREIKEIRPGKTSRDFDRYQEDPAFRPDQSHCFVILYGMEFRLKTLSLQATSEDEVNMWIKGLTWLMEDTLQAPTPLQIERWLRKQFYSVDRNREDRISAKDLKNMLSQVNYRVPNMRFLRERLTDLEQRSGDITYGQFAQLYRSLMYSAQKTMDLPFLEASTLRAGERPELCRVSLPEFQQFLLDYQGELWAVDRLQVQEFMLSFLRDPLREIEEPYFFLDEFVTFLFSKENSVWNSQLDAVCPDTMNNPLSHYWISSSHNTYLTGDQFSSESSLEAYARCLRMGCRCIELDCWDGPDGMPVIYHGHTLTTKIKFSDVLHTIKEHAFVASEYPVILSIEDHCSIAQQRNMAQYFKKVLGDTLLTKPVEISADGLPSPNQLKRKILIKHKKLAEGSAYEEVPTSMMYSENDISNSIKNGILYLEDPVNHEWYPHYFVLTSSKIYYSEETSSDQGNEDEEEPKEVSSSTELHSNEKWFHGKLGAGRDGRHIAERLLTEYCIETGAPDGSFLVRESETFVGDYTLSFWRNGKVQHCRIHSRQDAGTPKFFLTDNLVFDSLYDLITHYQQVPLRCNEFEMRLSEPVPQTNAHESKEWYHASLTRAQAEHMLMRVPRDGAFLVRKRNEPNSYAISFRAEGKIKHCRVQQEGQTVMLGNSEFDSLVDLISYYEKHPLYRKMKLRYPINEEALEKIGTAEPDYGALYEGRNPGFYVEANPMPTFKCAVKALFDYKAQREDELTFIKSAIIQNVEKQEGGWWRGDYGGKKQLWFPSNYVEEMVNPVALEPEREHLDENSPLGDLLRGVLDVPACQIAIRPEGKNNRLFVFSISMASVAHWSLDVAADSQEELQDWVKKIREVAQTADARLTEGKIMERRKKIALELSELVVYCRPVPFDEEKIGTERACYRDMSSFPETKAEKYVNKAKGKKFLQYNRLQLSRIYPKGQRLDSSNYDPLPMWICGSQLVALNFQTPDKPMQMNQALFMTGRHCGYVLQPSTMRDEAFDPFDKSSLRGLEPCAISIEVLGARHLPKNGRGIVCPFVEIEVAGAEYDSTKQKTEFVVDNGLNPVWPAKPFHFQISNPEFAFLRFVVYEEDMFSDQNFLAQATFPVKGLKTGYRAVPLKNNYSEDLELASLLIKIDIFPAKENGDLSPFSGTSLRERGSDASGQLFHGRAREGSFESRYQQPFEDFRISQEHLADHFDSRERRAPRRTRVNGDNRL
Protocol: T-cells (5×10^7 cells per condition) were stimulated with Ig-CD95L or cl-CD95L (100 ng/mL) for indicated times at 37° C. Cells were lysed, incubated with APO1.3 (1 ug/mL) for 15 min at 4° C. and CD95 was immunoprecipitated using A/G protein-coupled magnetic beads (Ademtech, Pessac, France) for 1 h. After extensive washing, the immune complex was resolved by SDS-PAGE and immunoblotting was performed with indicated antibodies.
Cells were lyzed for 30 minutes at 4° C. in lysis buffer (25 mM HEPES pH 7.4, 1% v/v Triton X-100, 150 mM NaCl, 2 mM EGTA supplemented with a mix of protease inhibitors (Sigma-Aldrich)). Protein concentration was determined by the bicinchoninic acid method (PIERCE, Rockford, Ill., USA) according to the manufacturer's protocol. Proteins were separated on a 12% SDS-PAGE and transferred to a nitrocellulose membrane (GE Healthcare, Buckinghamshire, England). The membrane was blocked 15 minutes with TBST (50 mM Tris, 160 mM NaCl, 0.05% v/v Tween 20, pH 7.8) containing 5% w/v dried skimmed milk (TBSTM). Primary antibody was incubated overnight at 4° C. in TBSTM. The membrane was intensively washed (TBST) and then the peroxydase-labeled anti-rabbit or anti-mouse (SouthernBiotech, Birmingham, Ala., US) was added for 45 minutes. The proteins were visualized with the enhanced chemiluminescence substrate kit (ECL, GE Healthcare).

[1] = tested on: CD95-mediated Ca^2+ response; assay: Calcium response to cl-CD95L in MEF; type: cell-based; settings: MEFs pre-incubated 1 hr, 10 μM peptide; 100 ng/ml cl-CD95L
Protocol: Cells were loaded with Fura2-AM (1 μM) at resting temperature for 30 min in Hank's Balanced Salt Solution (HBSS). After washing with HBSS, the cells were incubated for 15 min in the absence of Fura2-AM to complete de-esterification of the dye. Cells were placed in a thermostated chamber (37° C.) of an inverted epifluorescence microscope (Olympus IX70) equipped with a ×40, UApo/340-1.15 W water-immersion objective (Olympus), and fluorescence micrograph images were captured at 510 nm and at 12-bit resolution by a fast-scan camera (CoolSNAP fx Monochrome, Photometrics). To minimize UV light exposure, 4×4 binning function was used. Fura2-AM was alternately excited at 340 and 380 nm, and ratios of the resulting images (excitations at 340 and 380 nm and emission filter at 520 nm) were produced at constant intervals (5 s or 10 s according to the stimulus). […] Fluorescent images were pseudocolored using the IMD display mode in MetaFluor and assembled without further manipulation in Photoshop (Adobe). Raw data were acquired with MetaFluor and graphed in Origin (OriginLab). […]

[2] = tested on: CD95-mediated Ca^2+ response; assay: Calcium response to cl-CD95L in activated PBL; type: cell-based, human; settings: activated PBL pre-incubated 1 hr, 10 μM peptide; 100 ng/ml cl-CD95L
Protocol: (§1) Cells were loaded with Fura2-AM (1 μM) at resting temperature for 30 min in Hank's Balanced Salt Solution (HBSS). After washing with HBSS, the cells were incubated for 15 min in the absence of Fura2-AM to complete de-esterification of the dye. Cells were placed in a thermostated chamber (37° C.) of an inverted epifluorescence microscope (Olympus IX70) equipped with a ×40, UApo/340-1.15 W water-immersion objective (Olympus), and fluorescence micrograph images were captured at 510 nm and at 12-bit resolution by a fast-scan camera (CoolSNAP fx Monochrome, Photometrics). To minimize UV light exposure, 4×4 binning function was used. Fura2-AM was alternately excited at 340 and 380 nm, and ratios of the resulting images (excitations at 340 and 380 nm and emission filter at 520 nm) were produced at constant intervals (5 s or 10 s according to the stimulus). […] Fluorescent images were pseudocolored using the IMD display mode in MetaFluor and assembled without further manipulation in Photoshop (Adobe). Raw data were acquired with MetaFluor and graphed in Origin (OriginLab). [Ca^2+]i was calculated using the following equation: [Ca^2+]i=Kd(R−Rmin)/(R−Rmax)×Sf2/Sf1, where Kd is the Fura2-AM dissociation constant at the two excitation wavelengths (F340/F380); Rmin is the fluorescence ratio in the presence of minimal calcium, obtained by chelating Ca^2+ with 10 mM EGTA; Rmax is the fluorescence ratio in the presence of excess calcium, obtained by treating cells with 1 μM ionomycin; Sf2 is the fluorescence of the Ca^2+-free form; and Sf1 is the fluorescence of the Ca^2+-bound form of Fura2-AM at excitation wavelengths of 380 and 340 nm, respectively. In some experiments cells were placed in a Ca^2+-free medium consisting of the HBSS described above in which CaCl2 was omitted and 100 μM EGTA was added in order to chelate residual Ca^2+ ions. This medium was added to the cells just before recording to avoid leak of the intracellular calcium stores.
All cells were purchased from ATCC (Molsheim Cedex, France). T leukemic cell lines CEM, H9 and Jurkat were cultured in RPMI supplemented with 8% heat-inactivated FCS (v/v) and 2 mM L-glutamine at 37° C. in a 5% CO2 incubator. CEM-IRC cell expressing a low amount of plasma membrane CD95 was described in (Beneteau et al., 2007; Beneteau et al., 2008). […]
T cells were loaded with Fura-PE3-AM (1 μM) at room temperature for 30 min in Hank's Balanced Salt Solution (HBSS). […] Cells were placed in the temperature controlled chamber (37° C.) of an inverted epifluorescence microscope (Olympus IX70) equipped with an ×40 UApo/340-1.15 W water-immersion objective (Olympus), and fluorescence micrograph images were captured at 510 nm and 12-bit resolution by a fast-scan camera (CoolSNAP fx Monochrome, Photometrics). […]

[3] = tested on: CD95-mediated Ca^2+ response; assay: Calcium response to cl-CD95L in Jurkat cells (Fura2/FuraPE3 video imaging); type: cell-based; settings: Jurkat pre-incubated 1 hr, 10 μM peptide; 100 ng/ml cl-CD95L
Protocol: as §1
T cells were loaded with Fura-PE3-AM (1 μM) at room temperature for 30 min in Hank's Balanced Salt Solution (HBSS). After washing, the cells were incubated for 15 min in the absence of Fura-PE3-AM to complete de-esterification of the dye. Cells were placed in the temperature controlled chamber (37° C.) of an inverted epifluorescence microscope (Olympus IX70) equipped with an ×40 UApo/340-1.15 W water-immersion objective (Olympus), and fluorescence micrograph images were captured at 510 nm and 12-bit resolution by a fast-scan camera (CoolSNAP fx Monochrome, Photometrics). To minimize UV light exposure, a 4×4 binning function was used. Fura-PE3 was alternately excited at 340 and 380 nm, and the ratios of the resulting images (emission filter at 520 nm) were produced at constant intervals (10 seconds). The Fura-PE3 ratio (Fratio 340/380) images were analyzed offline with Universal Imaging software, including Metafluor and Metamorph. Fratio reflects the intracellular Ca^2+ concentration changes. Each experiment was repeated 3 times, and the average of more than 20 single-cell traces was analyzed.

interaction with PLCγ1 (co-immunoprecipitation) (CD95/PLCγ1) | PLCγ1 recruitment to CD95 (CD95/PLCγ1; CD95L 100 ng/mL) | Substance | initial phase of the calcium response to cl-CD95L [1] | calcium response to cl-CD95L [2] | calcium response to cl-CD95L [3]
interacted with PLCγ1 | inhibited its recruitment to CD95 | CD95^(175-210)-mCherry: construct consisting of CD95 amino acids 175 to 210 (calcium-inducing domain) fused to mCherry, expressed in HEK cells (KRKEVQKTCRKHRKENQGSHESPTLNPETVAINLSD-mCherry) |  |  | 
 |  | TAT peptide control: TAT control peptide, SEQ ID NO: 5 (RKKRRQRRRGGSIELDDPRPR; TAT-CONTROL) [reference compound] | did not modify the initial phase | did not significantly modify the calcium response | did not significantly modify the calcium response
